The source of these data is ChEMBL document CHEMBL5375950, “Chemical genetic approaches for the discovery of bacterial cell wall inhibitors” (2023).

The test system of this assay is Escherichia coli. The experiment in a line: Antibacterial activity against Escherichia coli MG1655 assessed as inhibition of bacterial growth. Format: functional.

Converted amounts (≈) assume the structure as drawn.

As a reminder, the MIC is the lowest concentration found to suppress growth.

Consider `COc1ccc(-c2c(-c3ccc(C)s3)[nH]c3[nH]c(=O)[nH]c(=O)c23)cc1`, for which the MIC turned out to be 16 µg/mL (≈ 45.3 µM).
